Assay results reported in ChEMBL document CHEMBL3044611, “Synthesis of novel Hantzsch dihydropyridines and Biginelli dihydropyrimidines of biological interest: a 3D-QSAR study on their cytotoxicity” (Med Chem Res, 2010).
In brackets after ≈: the same amount, converted by molar mass. Activity calls are given as the source filed them. The rule behind the calls is not given here.

Tests used:
[1] = (§1) Cytotoxicity against Chlorocebus aethiops (African green monkey) Vero cells assessed as cell viability after 3 days by SRB assay; type: cell-based; conditions: chlorocebus sabaeus, Vero cells
Vero = test: as §1; type: cell-based; conditions: chlorocebus sabaeus, vero, 72 h
Bacillus subtilis = test: Antibacterial activity against Bacillus subtilis at 50 ug/well after 24 hr by agar well diffusion method; type: functional, organism-based
Staphylococcus aureus = test: Antibacterial activity against Staphylococcus aureus at 50 ug/well after 24 hr by agar well diffusion method; type: functional, organism-based

| Compound | CC50 at 72 h [1] [µg/mL] | pCC50 (Vero) | Activity (Bacillus subtilis) | Activity (Staphylococcus aureus) |
| --- | --- | --- | --- | --- |
| COc1ccc(NC(=O)C2=C(C)NC(=O)NC2c2ccc(OC)cc2)cc1 (stereo not given) | 158 (≈ 430 µM) | 0.367 | inactive | inactive |
| COc1ccc(NC(=O)C2=C(C)NC(=O)NC2c2cccc([N+](=O)[O-])c2)cc1 (stereo not given) | 64 (≈ 167 µM) | 0.776 | inactive | inactive |
| CC1=C(C(=O)Nc2ccc(Cl)cc2)C(c2cccc([N+](=O)[O-])c2)C(C(=O)Nc2ccc(Cl)cc2)=C(C)N1 | 26 (≈ 48.4 µM) | 1.315 | inactive | inactive |
| COc1ccc(NC(=O)C2=C(C)NC(=S)NC2c2ccccc2O)cc1 (stereo not given) | 246 (≈ 666 µM) | 0.176 | inactive | inactive |
| COc1ccc(NC(=O)C2=C(C)NC(=O)NC2/C=C/c2ccccc2)cc1 (stereo not given) | 15 (≈ 41.3 µM) | 1.383 | inactive | inactive |
| CC1=C(C(=O)Nc2ccc(Cl)cc2)C(c2ccc(N(C)C)cc2)C(C(=O)Nc2ccc(Cl)cc2)=C(C)N1 | 155 (≈ 289 µM) | 0.538 | inactive | inactive |
| COc1ccc(NC(=O)C2=C(C)NC(=S)NC2c2ccccc2)cc1 (stereo not given) | 15 (≈ 42.4 µM) | 1.371 | inactive | inactive |
| CC1=C(C(=O)Nc2ccc(Cl)cc2)C(c2ccco2)C(C(=O)Nc2ccc(Cl)cc2)=C(C)N1 | 24 (≈ 49.8 µM) | 1.302 | inactive | inactive |
| CC1=C(C(=O)Nc2ccc(Cl)cc2)C(c2cccc(Cl)c2)C(C(=O)Nc2ccc(Cl)cc2)=C(C)N1 | 12 (≈ 22.8 µM) | 1.642 | inactive | inactive |
| CC1=C(C(=O)Nc2ccc(Cl)cc2)C(c2ccncc2)C(C(=O)Nc2ccc(Cl)cc2)=C(C)N1 | 78 (≈ 158 µM) | 0.8 | inactive | inactive |
| COc1ccc(NC(=O)C2=C(C)NC(=O)NC2c2ccco2)cc1 (stereo not given) | 210 (≈ 642 µM) | 0.192 | inactive | inactive |
| COc1ccc(C2C(C(=O)Nc3ccc(Cl)cc3)=C(C)NC(C)=C2C(=O)Nc2ccc(Cl)cc2)cc1 | 20 (≈ 38.3 µM) | 1.42 | inactive | inactive |
| COc1cc(C2C(C(=O)Nc3ccc(Cl)cc3)=C(C)NC(C)=C2C(=O)Nc2ccc(Cl)cc2)ccc1O | 250 (≈ 464 µM) | 0.333 | inactive | inactive |
| CC1=C(C(=O)Nc2ccc(Cl)cc2)C(c2ccccc2O)C(C(=O)Nc2ccc(Cl)cc2)=C(C)N1 | 62 (≈ 122 µM) | 0.913 | inactive | inactive |
| COc1ccc(NC(=O)C2=C(C)NC(=S)NC2c2ccc(OC)cc2)cc1 (stereo not given) | 150 (≈ 391 µM) | 0.408 | inactive | inactive |
| CC1=C(C(=O)Nc2ccc(Cl)cc2)C(/C=C/c2ccccc2)C(C(=O)Nc2ccc(Cl)cc2)=C(C)N1 | 21 (≈ 40.5 µM) | 1.392 | inactive | inactive |
| COc1ccc(NC(=O)C2=C(C)NC(=O)NC2c2cccc(Cl)c2)cc1 (stereo not given) | 254 (≈ 683 µM) | 0.164 | inactive | inactive |
| COc1ccc(NC(=O)C2=C(C)NC(=O)NC2c2ccc(O)c(OC)c2)cc1 (stereo not given) | 8 (≈ 20.9 µM) | 1.68 | inactive | inactive |
| COc1ccc(NC(=O)C2=C(C)NC(=O)NC2c2ccc(N(C)C)cc2)cc1 (stereo not given) | 236 (≈ 620 µM) | 0.207 | inactive | inactive |
| CC1=C(C(=O)Nc2ccc(Cl)cc2)CC(C(=O)Nc2ccc(Cl)cc2)=C(C)N1 | 40 (≈ 96.1 µM) | 1.017 | inactive | inactive |
| COc1ccc(NC(=O)C2=C(C)NC(=O)NC2c2ccccc2)cc1 (stereo not given) | 225 (≈ 667 µM) | 0.176 | inactive | inactive |
| COc1ccc(NC(=O)C2=C(C)NC(=O)NC2c2ccncc2)cc1 (stereo not given) | 10 (≈ 29.6 µM) | 1.529 | inactive | inactive |
| COc1ccc(NC(=O)C2=C(C)NC(=S)NC2c2ccc(N(C)C)cc2)cc1 (stereo not given) | 500 (≈ 1260 µM) | -0.101 | inactive | inactive |
| CC1=C(C(=O)Nc2ccc(Cl)cc2)C(c2ccccc2)C(C(=O)Nc2ccc(Cl)cc2)=C(C)N1 | 15 (≈ 30.5 µM) | 1.516 | inactive | inactive |
| COc1ccc(NC(=O)C2=C(C)N=C(S)NC2c2ccc(O)c(OC)c2)cc1 (stereo not given) | 8 (≈ 20 µM) | 1.698 | inactive | inactive |
| COc1ccc(NC(=O)C2=C(C)NC(=S)NC2c2cccc([N+](=O)[O-])c2)cc1 (stereo not given) | 80 (≈ 201 µM) | 0.697 | inactive | inactive |
| COc1ccc(NC(=O)C2=C(C)NC(=S)NC2c2cccc(Cl)c2)cc1 (stereo not given) | 270 (≈ 696 µM) | 0.157 | inactive | inactive |
| COc1ccc(NC(=O)C2=C(C)NC(=O)NC2)cc1 | 200 (≈ 765 µM) | 0.116 | inactive | inactive |
| COc1ccc(NC(=O)C2=C(C)NC(=O)NC2c2ccccc2O)cc1 (stereo not given) | 160 (≈ 453 µM) | 0.343 | inactive | inactive |
| COc1ccc(NC(=O)C2=C(C)NC(=S)NC2c2ccco2)cc1 (stereo not given) | 230 (≈ 670 µM) | 0.173 | inactive | inactive |
